# Test results from patent US20050282743A1, “Molecular interactions in cells” (Arbor Vita Corporation, priority 2001, published 2005).
# Structures can show the parent of a compound that is named as a salt.
# Assays:
# [1] = biological target: T1, FLJ10324 : Presenilin 2 (117L) (Homo sapiens, UniProt Q96JH8); experiment: G assay with FDA approved drug (Example 7, TABLE 10A); format: binding; details: OD in absence of drug 0.4; drug concentration per TABLE 11; read after 30 minutes
# T1 construct: made in house; host or cells: E. coli (DH5alpha, BL21 or JM109)
# T1 sequence (Q96JH8 976-1061 limits assumed): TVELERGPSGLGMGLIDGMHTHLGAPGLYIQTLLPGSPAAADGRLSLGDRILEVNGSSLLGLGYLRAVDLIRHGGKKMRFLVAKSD
# Experimental: (§1) For certain of the PDZ proteins and PL proteins shown to bind together and for which Kd values had been obtained, additional testing was conducted to determine whether certain pharmaceutical compounds would act to antagonize or agonize the interactions. Assays were conducted as for the G′ assay described supra both in the presence and absence of test compound, except that 50 ul of a 10 uM solution of the biotinylated PL peptide is allowed to react with the surface bearing the PDZ-domain polypeptide instead of a 20 uM solution as specified in step (2) of the assay.
# (§2) In both tables, the first column (left to right) entitled “PDZ domain” lists the gene name of GST-PDZ domain fusion (see TABLE 9). Entries having two numbers separated by a slash indicate which PDZ domain was utilized. For example, in TABLE 10A, the entry for ZO-3 is 1/3. This means that PDZ domain 1 of 3 was used.
# (§3) The second column labeled “PL” indicates the name of the PDZ ligand (see TABLES 10A and 10B) interacting with the PDZ domain. The third column entitled “Drug” lists the common or trade name of pharmaceutical compound tested and found to modulate the specific PDZ-PL interaction (suppliers and chemical information are listed in TABLE 11). The final column with the heading “Change in OD” indicates the change in absorbance at 450 nm of the assay in the absence (first number) or presence (second number) of chemical compound.
# (§4) Many FDA approved drugs have unknown mechanism of function. It is quite possible that some of these drugs function by disrupting or increasing PDZ/PL interactions. This possibility was examined by using the ‘G Assay’ (Example 3 section D). FDA approved drugs were incubated in the presence of the labeled peptide and compared to the same interaction without drug to determine if there was an effect on specific PDZ:PL interactions (drugs added with peptide at step 9 in Example 3D). The primary focus of this experiment was on drugs involved in treatment of depression (amitriptyline, desipramine, trimipramine, benztropine, and nortryptilline) and epilepsy (valproic acid). No modes of action are known for these drugs.
# (§5) Therapeutic dose was determined by guidelines given in the Physician's Desk Reference and in the assay, 200 times this amount was used. If a dosage range was given, the upper end of the range was used. Each interaction listed in TABLES 10A & B was tested in the ‘G Assay’ (see Example 3) against each of the drugs listed in TABLE 11. The concentration of GST-fusion protein and peptide used in the assay represent the Kd and were determined by titration. These values can be found in TABLE 7. The drugs were added to the peptide before addition to the well containing the PDZ protein. Otherwise, the assay was carried out as described and read at 450 nm after 30 minutes of developing. For the sequences of the PDZs and PLs used in these tests, see TABLES 8 & 9.
# (§6) List of interactions and therapeutics for which a modulation of binding was observed. Concentrations at which the GST-PDZ fusion protein and labeled peptide were used can be found in Table 7 or Table 12.
# [2] = biological target: T2, ZO-3 1/3 : Presenilin (115L) (Homo sapiens, UniProt O95049); experiment: as above; format: binding; details: OD in absence of drug 1.2; drug concentration per TABLE 11; read after 30 minutes
# T2 construct: the entry for ZO-3 is 1/3; This means that PDZ domain 1 of 3 was used; made in house; host or cells: E. coli (DH5alpha, BL21 or JM109)
# T2 sequence (O95049 with tags, fused parts or gaps): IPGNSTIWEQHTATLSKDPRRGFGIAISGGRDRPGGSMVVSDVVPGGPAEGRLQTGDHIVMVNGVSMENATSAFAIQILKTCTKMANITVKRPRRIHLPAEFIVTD
# Experimental: as §1, §2, §3, §4, §5, §6
# [3] = tested on: hSyntenin : Presenilin (115L); experiment: as above; format: binding; details: OD in absence of drug 1.1; drug concentration per TABLE 11; read after 30 minutes
# Experimental: as §1, §2, §3, §4, §5, §6
# [4] = biological target: T3, Mupp-1 7/13 : Presenilin 2 (117L) (Homo sapiens, UniProt O75970); experiment: G assay with FDA approved drug (Example 7, TABLES 10A, 10B); format: binding; details: OD in absence of drug 0.5; drug concentration per TABLE 11; read after 30 minutes
# T3 construct: Entries having two numbers separated by a slash indicate which PDZ domain was utilized; made in house; host or cells: E. coli (DH5alpha, BL21 or JM109)
# T3 sequence (O75970 with tags, fused parts or gaps): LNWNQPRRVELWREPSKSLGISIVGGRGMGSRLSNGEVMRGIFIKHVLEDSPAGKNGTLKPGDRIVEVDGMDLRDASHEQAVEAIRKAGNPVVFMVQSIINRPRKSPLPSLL
# Experimental: as §1, §2, §3, §4
# as §5, with “For the sequences of the PDZs and PLs used in these tests, see TABLES 8 & 9.” left out
# [5] = biological target: T4, Par 3 3/3 : Presenilin 2 (117L) (Homo sapiens, UniProt Q8TEW0); experiment: as above; format: binding; details: OD in absence of drug 0.6; drug concentration per TABLE 11; read after 30 minutes
# T4 construct: made in house; host or cells: E. coli (DH5alpha, BL21 or JM109)
# T4 sequence (Q8TEW0 579-681): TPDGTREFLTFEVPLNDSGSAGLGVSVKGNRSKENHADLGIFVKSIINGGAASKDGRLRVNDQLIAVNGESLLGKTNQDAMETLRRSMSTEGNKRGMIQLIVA
# Experimental: as §1, §2, §3, §4
# as §5, with “For the sequences of the PDZs and PLs used in these tests, see TABLES 8 & 9.” left out
# [6] = biological target: T5, Atr-P (1/6) : DNAM (22L) (Homo sapiens, UniProt Q86UL8); experiment: G assay with FDA approved drug (Example 7, TABLE 10B); format: binding; details: OD in absence of drug 4; drug concentration per TABLE 11; read after 30 minutes
# T5 construct: made in house; host or cells: E. coli (DH5α, BL21 or JM109)
# T5 sequence (Q86UL8 408-511): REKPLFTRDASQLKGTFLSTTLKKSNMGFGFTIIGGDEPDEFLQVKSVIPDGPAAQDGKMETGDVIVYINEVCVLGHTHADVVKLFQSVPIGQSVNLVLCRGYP
# Experimental: as §1, §2, §3, §4, §5, §6
# [7] = biological target: T6, BAI-1 (2/6) : DNAM (22L) (Homo sapiens, UniProt Q96QZ7); experiment: as above; format: binding; details: OD in absence of drug 4; drug concentration per TABLE 11; read after 30 minutes
# T6 construct: made in house; host or cells: E. coli (DH5α, BL21 or JM109)
# T6 sequence (Q96QZ7 463-566): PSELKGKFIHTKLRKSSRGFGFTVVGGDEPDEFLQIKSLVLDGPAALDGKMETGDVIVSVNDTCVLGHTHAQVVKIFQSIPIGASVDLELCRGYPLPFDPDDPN
# Experimental: as §1, §2, §3, §4, §5, §6
# [8] = biological target: T7, ZO-2 (1/3) : DNAM (22L) (Homo sapiens, UniProt Q9UDY2); experiment: as above; format: binding
# T7 construct: made in house; host or cells: E. coli (DH5α, BL21 or JM109)
# T7 sequence (Q9UDY2 27-122): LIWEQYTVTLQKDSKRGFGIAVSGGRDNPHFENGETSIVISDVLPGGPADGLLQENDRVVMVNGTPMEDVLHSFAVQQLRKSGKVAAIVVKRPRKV
# Experimental: as §1, §2, §3, §4, §5, §6
# [9] = biological target: T8, Hemba 1003117 : Presenilin 2 (117L) (Homo sapiens, UniProt Q96JH8); experiment: as above; format: binding; details: OD in absence of drug 1.2; drug concentration per TABLE 11; read after 30 minutes
# T8 construct: made in house; host or cells: E. coli (DH5α, BL21 or JM109)
# T8 sequence (Q96JH8 969-1068): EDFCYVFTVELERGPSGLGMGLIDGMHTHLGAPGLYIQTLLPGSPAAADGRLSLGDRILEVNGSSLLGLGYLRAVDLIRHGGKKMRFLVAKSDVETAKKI
# Experimental: as §1, §2, §3, §4, §5, §6
# [10] = biological target: T9, PTPL-1 (4/5) : Presenilin 2 (117L) (Homo sapiens, UniProt Q12923, G1797A); experiment: as above; format: binding; details: OD in absence of drug 1.4; drug concentration per TABLE 11; read after 30 minutes
# T9 construct: made in house; host or cells: E. coli (DH5α, BL21 or JM109)
# T9 sequence (Q12923 1782-1879 G1797A): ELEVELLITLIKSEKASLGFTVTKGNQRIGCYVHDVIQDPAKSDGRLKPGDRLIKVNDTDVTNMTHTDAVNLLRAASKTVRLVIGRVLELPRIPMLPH
# Experimental: as §1, §2, §3, §4, §5, §6
# [11] = biological target: T10, TIP-1 1/1 : LPAP (30L) (Homo sapiens, UniProt O14907); experiment: G assay with FDA approved drug (Example 7, TABLE 10A); format: binding; details: OD in absence of drug 1.1; drug concentration per TABLE 11; read after 30 minutes
# T10 construct: made in house; host or cells: E. coli (DH5alpha, BL21 or JM109)
# T10 sequence (O14907 14-116): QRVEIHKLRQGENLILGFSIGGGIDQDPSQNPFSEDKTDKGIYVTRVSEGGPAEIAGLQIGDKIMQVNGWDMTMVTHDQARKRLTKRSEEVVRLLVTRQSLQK
# Experimental: as §1, §2, §3, §4, §5, §6
# [12] = biological target: T11, AF6 : Presenilin (115L) (Homo sapiens, UniProt P55196); experiment: as above; format: binding
# T11 construct: made in house; host or cells: E. coli (DH5alpha, BL21 or JM109)
# T11 sequence (P55196 1001-1093): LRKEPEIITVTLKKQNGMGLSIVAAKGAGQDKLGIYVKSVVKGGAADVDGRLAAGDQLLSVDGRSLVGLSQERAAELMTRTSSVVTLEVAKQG
# Experimental: as §1, §2, §3, §4, §5, §6
# [13] = biological target: T12, DVL2 : Presenilin (115L) (Homo sapiens, UniProt O14641); experiment: as above; format: binding; details: OD in absence of drug 0.3; drug concentration per TABLE 11; read after 30 minutes
# T12 construct: made in house; host or cells: E. coli (DH5alpha, BL21 or JM109)
# T12 sequence (O14641 with tags, fused parts or gaps): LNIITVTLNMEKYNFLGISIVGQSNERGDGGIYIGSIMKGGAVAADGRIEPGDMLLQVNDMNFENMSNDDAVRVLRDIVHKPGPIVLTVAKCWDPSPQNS
# Experimental: as §1, §2, §3, §4, §5, §6
# [14] = biological target: T13, ZO-1 2/3 : NET (258L) (Homo sapiens, UniProt Q07157, DEL264-264); experiment: G assay with FDA approved drug (Example 7, TABLE 10B); format: binding; details: OD in absence of drug 0.8; drug concentration per TABLE 11; read after 30 minutes
# T13 construct: made in house; host or cells: E. coli (DH5α, BL21 or JM109)
# T13 sequence (Q07157 with tags, fused parts or gaps DEL264-264): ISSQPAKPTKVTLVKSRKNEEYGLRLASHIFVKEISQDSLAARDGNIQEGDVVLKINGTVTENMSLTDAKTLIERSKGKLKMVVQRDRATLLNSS
# Experimental: as §1, §2, §3, §4, §5, §6
# [15] = tested on: Antigen-specific mouse T cells, BR4.2; experiment: T cell stimulation assay, MBPAc1-16 and antigen presenting cells, IFNγ ELISA (FIG. 1A); format: cell-based; details: 10 μM Tat-peptide; compared to Tat-peptide alone or no peptide
# Experimental: Antigen-specific T cell activation was measured by cytokine production. Fusion peptides containing tat and a T cell surface molecule carboxyl terminus inhibited γ-interferon (IFN) production by a T cell line in response to myelin basic protein (MBP) stimulation. […]
# Cell Cultures Cells were maintained and tested in RPMI 1640 media supplemented with 10% fetal calf serum (HyClone), 2 mM glutamine, 10 mM Hepes, 100 U/ml penicillin, 100 μg/ml streptomycin, 0.1 mM non-essential amino acids, 1 mM sodium pyruvate, and 50 μM beta mercaptoethanol.
# Supernatants were assayed for cytokine production following activation of T cell lines. […]
# IFNγ was measured from cell supernatants, described above, at ambient temperature using the Endogen, Inc. ELISA protocol 3. […] The presence of IFNγ was detected with a biotin-labeled anti-mouse IFNγ monoclonal antibody (MM700B, Endogen, Inc.,). […] The absorbance at 450 nm was measured using a microtiter plate reader (Thermo Max, Molecular Devices) and the concentration of unknown IFNγ from cell supernatants was calculated from a standard curve generated by Softmax Pro software (Molecular Devices).
molecule,measurement,setting,value
"CNCCCN1c2ccccc2CCc2ccccc21 [Desipramine, DESIPRAMINE HYDROCHLORIDE]",Change in OD: absorbance at 450 nm in presence of drug,[1],0.4 to 0.8
same,Change in OD: absorbance at 450 nm in presence of drug,[2],1.2 to 3.3
same,Change in OD: absorbance at 450 nm in presence of drug,[3],1.1 to 2.3
same,Change in OD: absorbance at 450 nm in presence of drug,[4],0.5 to 1.0
same,Change in OD: absorbance at 450 nm in presence of drug,[5],0.6 to 2.1
same,CHANGE IN OD: absorbance at 450 nm in presence of drug,[6],4 to 1.5
same,CHANGE IN OD: absorbance at 450 nm in presence of drug,[7],4 to 1.8
same,CHANGE IN OD: absorbance at 450 nm in presence of drug,"[8]; OD in absence of drug 2.1, drug concentration per TABLE 11, read after 30 minutes",2.1 to 0.5
same,"antagonistic effect, binding relative to absence of drug",[8]; ZO-2 domain 1 and DNAM-1,4.2 fold
"CCCC(CCC)C(=O)O [Valproic Acid, VALPROIC ACID]",Change in OD: absorbance at 450 nm in presence of drug,[4],0.5 to 0.2
same,Change in OD: absorbance at 450 nm in presence of drug,[5],0.6 to 0.2
same,CHANGE IN OD: absorbance at 450 nm in presence of drug,[9],1.2 to 0.8
same,CHANGE IN OD: absorbance at 450 nm in presence of drug,[10],1.4 to 1.1
"CN1[C@@H]2CC[C@H]1C[C@@H](OC(c1ccccc1)c1ccccc1)C2 [Benztropine, BENZTROPINE MESYLATE]",Change in OD: absorbance at 450 nm in presence of drug,[11],1.1 to 1.6
"CN(C)CCC=C1c2ccccc2CCc2ccccc21 [Amitriptyline, AMITRIPTYLINE HYDROCHLORIDE]","agonist effect, binding relative to absence of drug",[12]; AF6 and presenilin-1,4.3 fold
same,Change in OD: absorbance at 450 nm in presence of drug,"[12]; OD in absence of drug 0.4, drug concentration per TABLE 11, read after 30 minutes",0.4 to 1.7
same,Change in OD: absorbance at 450 nm in presence of drug,[13],0.3 to 0.9
same,Change in OD: absorbance at 450 nm in presence of drug,[2],1.2 to 3.6
same,Change in OD: absorbance at 450 nm in presence of drug,[3],1.1 to 2.7
"CN(C)CCCN1c2ccccc2CCc2ccccc21 [Imipramine, Imipramine HCI]",CHANGE IN OD: absorbance at 450 nm in presence of drug,[14],0.8 to 0.4
GYGRKKRRQRRRGPPSSSSGL [Tat-CD3 fusion peptide],T cell activation mediated by peptide:MHC (IFNγ production),[15],inhibits T cell activation
